Key:
[1] = test system: L. (V.) braziliensis intramacrophage amastigotes; assay: Treatment of RAW 264.7 macrophages infected with L. (V.) braziliensis (intramacrophage amastigotes); type: cell-based, Leishmania (Viannia) braziliensis; conditions: RAW 264.7 infected with L. (V.) braziliensis, 72 h of treatment
Procedure: RAW 264.7 macrophages (1 × 10^6 cells/mL) were seeded in 24-well plates containing sterile glass slides, and approximately 500 μL of supplemented DMEM medium was added. The plates were then incubated at 37 °C with 5% CO2 for 4 h to facilitate cell adhesion. Following the adhesion period, promastigotes (1 × 10^7) in the stationary growth phase were introduced into the wells for infection. The plates were then incubated for an additional 4 h to allow infection to take place. Afterward, the medium was carefully removed, and the wells were washed three times with PBS to eliminate any nonadherent cells. Fresh medium containing serial concentrations of the test substances, ranging from 0.78 to 25 μmol/L, was added to the wells. Additionally, a range of concentrations of glucantime (25 to 800 μmol/L) was included for comparison. The treatment was carried out for 72 h in an incubator at 37 °C with 5% CO2. At the end of the 72 h treatment period, the glass lamina was removed from each well and stained using rapid panoptic stain (Laborklin®, Curitiba, Paraná, Brazil). The stained samples were mounted on permanent slides using Entelan® (Sigma-Aldrich, St. Louis, MO, USA), and antileishmanial activity was assessed by measuring the infection rate and counting the number of amastigotes per macrophage. Quantification was performed using light microscopy at a magnification of 1000×, and a total of 300 macrophages per lamina were evaluated. As a negative control, half DMEM containing 0.2% DMSO was used.

IL-12 = assay: Cytokine production in supernatant of infected macrophages (ELISA), IL-12; type: cell-based, murine; conditions: supernatant of RAW 264.7 macrophages infected with L. (V.) braziliensis
From the text: (§1) To assess the production of cytokines TNF-α and IL-12 (associated with Th1 response), as well as IL-10 and IL-6 (associated with Th2 response), in the supernatants of the macrophage infection assay, the sandwich enzyme-linked immunosorbent assay (ELISA) method was employed, following the manufacturer’s instructions (eBioscience^TM, San Diego, CA, USA). Initially, capture antibodies specific to TNF-α, IL-6, IL-10, and IL-12 were sensitized in ELISA plates (NUNC-ImmunoTM, Sigma-Aldrich, St. Louis, MO, USA). The plates were incubated at 4 °C for 18 h. After the incubation period, all wells were washed with a solution containing 0.05% PBS and Tween 20 (Sigma-Aldrich, St. Louis, MO, USA). A blocking solution containing 10% FBS in PBS was added to the wells and incubated for 1 h. Subsequently, the wells were washed again. The supernatant obtained from the macrophage infection assay was added to the respective wells. Known concentrations of recombinant cytokines (TNF-α, IL-10, IL-6, and IL-12) were also added to the plate in parallel, covering a range from high to low concentrations. The plates were maintained at 4 °C for another 18 h. […] The absorbance was measured in a plate reader at a wavelength of 450 nm. The concentration of cytokines (TNF-α, IL-10, IL-6, and IL-12) in the supernatants was determined by interpolation from the standard curve.

IL-10 = assay: Cytokine production in supernatant of infected macrophages (ELISA), IL-10; type: cell-based, murine; conditions: supernatant of RAW 264.7 macrophages infected with L. (V.) braziliensis
From the text: as §1

[2] = Cell toxicity, MTT-based EZ4U assay, HEK-293; set-up: species or system human; conditions: human, HEK-293 cells (embryonic kidney), HEK, 72 h
Procedure: (§2) In this study, we utilized the RAW 264.7 macrophages line (obtained from ATCC: code TIB-71™),human embryonic kidney cell line HEK-293 (obtained from ATCC: code CRL-1573™)and two human cancer cell cultures: the colon carcinoma cell line CaCo-2 and the adenocarcinomic human alveolar basal epithelial cell A549 (also obtained from ATCC: codesHTB-37™ and CCL-185™).These cell lines were cultured in Dulbecco’s modified Eagle medium (DMEM) from Gibco by Life Technologies (LifeTech Austria, Vienna, Austria). The growth medium was supplemented with 5% fetal bovine serum (FBS) from Gibco by Life Technologies and 1% penicillin-streptomycin obtained from Sigma-Aldrich (Vienna, Austria). The cells were maintained at 37 °C with 5% CO2 in a humidified incubator, and regular checks for mycoplasma contamination were carried out.
(§3) For experimental purposes, the cells were seeded into 96-well plates at a density of 2 × 10^4 cells/mL, with each well containing 100 µL of the cell suspension. The cells were allowed to adhere for 24 h. […] The stock solutions of these compounds were prepared in water with 10% (v/v) dimethyl sulfoxide (DMSO) and stored at 4 °C.
(§4) To assess cell viability after 72 h of exposure to the compounds, we employed a 3-(4,5-dimethylthiazol-2-yl)-2,5-diphenyltetrazolium bromide (MTT)-based vitality assay kit (EZ4U, Biomedica, Vienna, Austria). Briefly, we added 20 µL of the EZ4U assay solution to each well and incubated the plates in the dark for 2 h. Subsequently, we measured the absorbance using a microplate reader at 450 nm, with 620 nm as a reference to reduce unspecific background values. For reliability, all experiments were conducted three times with triplicate samples.

HEK-293 = assay: Cell toxicity, MTT-based EZ4U assay, HEK-293; set-up: species or system human; conditions: HEK-293, 1.56–500 µmol/L
Procedure: as §2, §3, §4

[3] = test system: L. (L.) infantum promastigotes; set-up: method as in PMID 36977142; conditions: read-out: IC50 antipromastigote activity; cited from earlier work
[4] = Leishmania braziliensis, RAW264.7, 72 h

SMILES | EC50 [1, 4] [µM] | EC50 [1] [µM] | IL-12 level (IL-12) | IL-10 level (IL-10) | viability at 72 h, 2.34 µmol/L [2] [%] | viability at 72 h, 4.6875 µmol/L [2] [%] | viability at 72 h, 9.375 µmol/L [2] [%] | viability at 72 h, 18.75 µmol/L [2] [%] | viability at 72 h, 37.5 µmol/L [2] [%] | viability at 72 h, 75 µmol/L [2] [%] | viability at 72 h, 150 µmol/L [2] [%] | viability at 72 h, 300 µmol/L [2] [%] | viability at 72 h, 600 µmol/L [2] [%] | toxic effects on cell viability (HEK-293) | IC50 [3] [µM]
CC(C)(C)c1ccc(N/C(=N\C(=O)c2ccccc2)NCc2ccccc2)cc1 [LQOF-G6, (Z)-N-benzoyl-N-benzyl-N-(4-tert-butylphenyl)guanidine] | 3.89 | 3.9 ± 0.1 |  |  |  |  |  |  |  |  |  |  |  |  | 24.4
O=C(/N=C(/NCc1ccc(Cl)cc1Cl)Nc1ccc(Br)cc1)c1ccccc1 [LQOF-G32, (Z)-N-benzoyl-N-(2,4-di-chlorobenzyl)-N-(4-bromophenyl)guanidine] |  |  |  |  | 93 ± 5.3 | 95 ± 12.7 | 89 ± 7.9 | 94 ± 8.9 | 91 ± 6.9 | 91 ± 13.9 | 94 ± 12.7 | 118 ± 13.9 | 185 ± 10.1 | No toxic effects | 

Continued, in another order:

EC50 [1, 4] [µM] | EC50 [1] [µM] | SMILES | IL-12 level (IL-12) | IL-10 level (IL-10) | viability at 72 h, 2.34 µmol/L [2] [%] | viability at 72 h, 4.6875 µmol/L [2] [%] | viability at 72 h, 9.375 µmol/L [2] [%] | viability at 72 h, 18.75 µmol/L [2] [%] | viability at 72 h, 37.5 µmol/L [2] [%] | viability at 72 h, 75 µmol/L [2] [%] | viability at 72 h, 150 µmol/L [2] [%] | viability at 72 h, 300 µmol/L [2] [%] | viability at 72 h, 600 µmol/L [2] [%] | toxic effects on cell viability (HEK-293) | IC50 [3] [µM]
3.65 | 3.6 ± 0.2 | O=C(/N=C(/NCc1ccccc1)Nc1ccc([N+](=O)[O-])cc1)c1ccccc1 [LQOF-G1, (Z)-N-benzoyl-N-benzyl-N-(4-nitrophenyl)guanidine] | increased | decreased | 99 ± 10 | 104 ± 11 | 125 ± 8.1 | 125 ± 9.4 | 100 ± 11 | 115 ± 7 | 111 ± 5 | 117 ± 6 | 115 ± 10 | No toxic effects | 
4.21 | 4.2 ± 0.5 | O=C(/N=C(/NCc1ccccc1)Nc1ccc(Br)cc1)c1ccccc1 [LQOF-G2, (Z)-N-benzoyl-N-benzyl-N-(4-bromophenyl)guanidine] |  | decreased | 104 ± 2.9 | 109 ± 9.6 | 103 ± 13.5 | 108 ± 8.6 | 96 ± 2.9 | 99 ± 8.5 | 145 ± 3.3 | 123 ± 7.1 | 133 ± 8.4 | No toxic effects | 12.7
8.25 | 8.2 ± 0.7 | O=C(/N=C(/NCc1ccccc1)Nc1ccc(I)cc1)c1ccccc1 [LQOF-G7, (Z)-N-benzoyl-N-benzyl-N-(4-iodophenyl)guanidine] |  |  |  |  |  |  |  |  |  |  |  |  | 23.6

Reference: PMC10813298, “Evidence of Guanidines Potential against Leishmania (Viannia) braziliensis: Exploring In Vitro Effectiveness, Toxicities and of Innate Immunity Response Effects” (Biomolecules, 2023)
